Source: PMC10541411 (Nature Communications, 2023)

How the values were obtained:
[1] = target: T1, 53BP1^TT-CC (E1549C/E1567C) (Homo sapiens, UniProt Q12888, E1549C/E1567C); experiment: 1H-15N HSQC NMR of 15N-labeled 53BP1TT-CC with UNC3474, with and without DTT; assay type: binding
T1 construct: The tandem Tudor domain of 53BP1 (53BP1^TT, residues 1481–1603) was purified as previously described; made in house
Procedure: Fig. 4 Engineering of a disulfide-crosslinked 53BP1^TT homodimer that binds UNC3474. a Sedimentation velocity analysis of 53BP1^TT-CC (20 μM) in the presence and absence of 10 mM DTT. b Crystal structure of 53BP1^TT-CC (blue and orange) showing the two disulfide bridges overlaid to the crystal structure of 53BP1^TT-UNC3474 (UNC3474 omitted) in gray. c Effects of adding 2 mM DTT and UNC3474 on the ^1H-^15N HSQC spectrum of ^15N-labeled 53BP1^TT-CC (1:1 UNC3474:53BP1^TT-CC molar ratio).
(§1) All NMR data were collected at 25 °C on a 700 MHz Bruker Avance III spectrometer equipped with a cryoprobe. Data were processed and analyzed with NMRPipe[54] and NMRViewJ[55],[56].

[2] = target: T2, 53BP1^TT-PN (E1549P/D1550N) (Homo sapiens, UniProt Q12888, D1550N/E1549P); experiment: 1H-15N HSQC NMR titration of 15N-labeled 53BP1TT-PN; assay type: binding; details: up to fourfold molar excess
T2 construct: The tandem Tudor domain of 53BP1 (53BP1^TT, residues 1481–1603) was purified as previously described; made in house
Procedure: as §1
To probe chemical shift perturbations, ^1H-^15N HSQC spectra were acquired on the following samples: 0.2 mM ^15N-labeled 53BP1^TT WT and 53BP1^TT-PN in 25 mM sodium phosphate, pH 7.0, 1.5 mM NaN3, 0.3 mM DSS, 90% H2O/10% D2O, free and incrementally titrated with various non-labeled inhibitors (UNC1078, UNC1118, UNC2170, UNC2991, UNC3474), as well as with H4KC20me2 and p53K382me2 peptides. Chemical shift perturbations (Δδ) were calculated using the Eq. (1):1 Δδ=(ΔN/5)^2+ΔH^2 where ΔN and ΔH are the corresponding differences in ^15N and ^1H chemical shifts between the bound and free forms of 53BP1.

[3] = target: T3, 53BP1^TT (tandem Tudor domain of 53BP1, residues 1481–1603) (Homo sapiens, UniProt Q12888); experiment: Isothermal titration calorimetry (ITC) of small molecules with 53BP1TT; assay type: binding; details: 25 °C, 50 mM Tris-HCl pH 7.5, 50 mM NaCl, one-site model; read-out: Kd (apparent, ITC)
T3 construct: The tandem Tudor domain of 53BP1 (53BP1^TT, residues 1481–1603) was purified as previously described; made in house; host or cells: E. coli (only for the SAXS sample)
Procedure: The ITC measurements were performed at 25 °C using a MicroCal iTC200 calorimeter. 53BP1^TT and the small molecules (UNC2991, UNC3351, UNC3474) were in 50 mM Tris-HCl, pH 7.5, 50 mM NaCl. In a typical run, 53BP1^TT was in the reaction cell at a concentration of 150 to 160 μM while the small molecule, in the titration syringe at a concentration of 0.8–2 mM, was delivered as 2 μL injections every 3 min. The titrations were paired with control experiments for heat of dilution. The titration of 53BP1^TT with UNC1118 was performed using a MicroCal VP-ITC calorimeter. ITC data were fitted to a one-site model using a Levenberg-Marquardt non-linear regression algorithm programmed in the Origin 7.0 software.
Supplementary Figure 1 | Interaction of 53BP1TT with small molecules probed using isothermal titration calorimetry (ITC) and small-angle X-ray scattering (SAXS). a, ITC of the interaction of UNC2991, UNC3351 and UNC3474 with 53BP1TT. Raw titration data and integrated heat measurements are shown. Indicated apparent Kds with associated standard deviations were determined by nonlinear least-squares analysis.
1.33 and 2 mg/mL with an exposure time of 0.5 s, without and with 10-fold molar excess of UNC1118 or UNC3474. The error bars in the scattering curves were generated using PRIMUS in the data analysis software ATSAS 2.4.2 and represent mean ± standard deviation calculated from signal intensity scaling and merging for the three different 53BP1TT concentrations. The Guinier plots, dimensionless Kratky plots and pair distance distribution functions derived from the SAXS data are shown. Also shown are the crystal structures of 53BP1TT and 53BP1TT-UNC3474 overlaid to the corresponding SAXS-based ab initio molecular envelopes generated using GASBOR 2.3i. c, Interaction of UNC1118 with 53BP1TT characterized using ITC (left) and NMR spectroscopy (right).
For the ITC, raw titration data and integrated heat measurements are shown. The indicated Kd with associated standard deviation was determined by nonlinear least-squares analysis.
(1 picture or pasted object on this page, not shown here)

53BP1^TT = target: T4, 53BP1^TT (Homo sapiens, UniProt Q12888); experiment: NMR 15N relaxation measurements (R1, R2, NOE); details: 1 mM 15N-labeled 53BP1TT, saturating amounts of small molecule
T4 construct: The tandem Tudor domain of 53BP1 (53BP1^TT, residues 1481–1603) was purified as previously described; made in house; host or cells: E. coli (only for the SAXS sample)
Procedure: The NMR relaxation measurements were carried out with 1 mM ^15N-labeled 53BP1^TT, 53BP1^TT-PN, and 53BP1^TT in the presence of saturating amounts of UNC3474 and UNC1118 in 25 mM sodium phosphate, pH 7.0, 100 mM NaCl, 1.5 mM NaN3, 0.3 mM DSS, 90% H2O/10% D2O, using standard experiments[58],[59]. The longitudinal and transverse ^15N relaxation rates R1 and R2 were determined using 12 and 14 relaxation delay times of 0.1–2 s and 4–120 ms, respectively. The first data point of each set of measurements was repeated for error assessment. The ^15N-{^1H} nuclear Overhauser ratios were obtained from a reference experiment without proton irradiation and a steady-state experiment with proton irradiation for 3 s.

T1 sequence (Q12888 1481-1603 E1549C/E1567C): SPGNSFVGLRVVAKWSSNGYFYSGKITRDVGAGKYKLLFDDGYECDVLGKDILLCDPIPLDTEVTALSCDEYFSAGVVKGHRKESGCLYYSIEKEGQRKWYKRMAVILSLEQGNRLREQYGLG
T2 sequence (Q12888 1481-1603 E1549P/D1550N): as the sequence (Q12888 1481-1603 E1549C/E1567C) above, with C69P, D70N, C87E counted along it
T3 sequence (Q12888 1481-1603): as the sequence (Q12888 1481-1603 E1549C/E1567C) above, with C69E, C87E counted along it
T4 sequence (Q12888 1481-1603): as the sequence (Q12888 1481-1603 E1549C/E1567C) above, with C69E, C87E counted along it

- affinity of reduced monomeric 53BP1TT-CC ([1]; with DTT (2 mM)): no affinity
- effect on 1H-15N HSQC spectra of 53BP1TT-CC (disulfide-crosslinked dimer) ([1]; without DTT, 1:1 UNC3474:53BP1TT-CC molar ratio): splitting of several NMR signals
- interaction with 53BP1TT-PN (1H-15N HSQC titration) [2]: did not interact
- Kd [3]: 1 ± 0.3 µM
SMILES: CC(C)c1cccc(C(=O)NCCCNC(C)(C)C)c1 [UNC3474]
- effect on 15N relaxation rates of 53BP1TT (53BP1^TT): increase in R2 relaxation rates
